Read-outs that look alike come from different tables or passages of the source.

Our source for the EC50 and solubility values is patent publication US20250382344A1, “Soluble GLP1/GIP/NPY2 Receptor Triple Agonists” (Boehringer Ingelheim International GmH, priority 2024, published 2025).

One data set deals with T1, hGIPR (Homo sapiens, UniProt P48546).
T1 construct: expressed in transfected cells; host or cells: CHO CRE-luciferase reporter cells
T1 sequence (P48546 22-466): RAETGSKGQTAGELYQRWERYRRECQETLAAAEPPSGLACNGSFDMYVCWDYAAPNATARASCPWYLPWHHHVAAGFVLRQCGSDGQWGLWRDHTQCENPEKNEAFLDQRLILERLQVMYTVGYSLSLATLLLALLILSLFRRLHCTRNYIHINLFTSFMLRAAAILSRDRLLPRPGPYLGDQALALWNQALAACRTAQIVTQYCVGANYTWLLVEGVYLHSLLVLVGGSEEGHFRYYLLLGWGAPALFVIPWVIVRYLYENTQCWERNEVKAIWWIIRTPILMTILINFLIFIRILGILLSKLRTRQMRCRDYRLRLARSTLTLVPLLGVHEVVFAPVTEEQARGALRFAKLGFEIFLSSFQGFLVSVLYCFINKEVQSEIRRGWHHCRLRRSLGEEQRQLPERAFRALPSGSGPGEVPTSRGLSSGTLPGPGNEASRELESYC
In words: hGIPR CreLuc assay in 0.5% and 100% plasma (CHO CRE-luciferase reporter cells). Format: cell-based. For orientation: A reporter such as luciferase makes a cellular process visible.

Data set [1] can be described thus: Solubility in 0.1 M phosphate buffer at pH 7. Format: physicochemical. The conditions noted are these: 0.1 M phosphate buffer at pH 7, 10 mg/mL final peptide concentration, shaking 2 hours at room temperature, peptides as TFA-salts, measured sample pH 6.5-7.0.
[2] abbreviates: 0.5% human plasma, read-out: hGIPR 0.5% hP.
The mark [3] stands for this setting: 100% human plasma, read-out: hGIPR 100% hP.

The solubility is how much of the substance goes into solution per volume. For `CC[C@H](C)[C@H](NC(=O)[C@H](CC(C)C)NC(=O)[C@H](Cc1c[nH]cn1)NC(=O)[C@H](CCCNC(=N)N)NC(=O)[C@@H](NC(=O)[C@H](Cc1ccccc1)NC(=O)[C@H](C)NC(=O)C(C)(C)NC(=O)[C@H](CCC(N)=O)NC(=O)[C@H](C)NC(=O)[C@H](CCC(N)=O)NC(=O)[C@H](CCCCN)NC(=O)[C@H](CCC(=O)O)NC(=O)[C@H](CC(C)C)NC(=O)C(C)(C)NC(=O)[C@@H](NC(=O)[C@H](CO)NC(=O)[C@H](Cc1ccc(O)cc1)NC(=O)[C@H](CC(=O)O)NC(=O)[C@H](CO)NC(=O)[C@@H](NC(=O)[C@H](Cc1ccccc1)NC(=O)[C@@H](NC(=O)CNC(=O)[C@H](CCC(=O)O)NC(=O)C(C)(C)NC(=O)[C@@H](N)Cc1ccc(O)cc1)[C@@H](C)O)[C@@H](C)O)[C@@H](C)CC)C(C)C)C(=O)N[C@@H](CC(N)=O)C(=O)N[C@@H](CCCCNC(=O)CC[C@H](NC(=O)CC[C@H](NC(=O)COCCOCCNC(=O)CC[C@H](NC(=O)CC[C@H](NC(=O)CC[C@H](NC(=O)CC[C@H](NC(=O)CCCCCCCCCCCCCCCCCCC(=O)O)C(=O)O)C(=O)O)C(=O)O)C(=O)O)C(=O)O)C(=O)O)C(=O)NC(C)(C)C(=O)N[C@H](C(=O)N[C@@H](CCCNC(=N)N)C(=O)N[C@@H](CCC(N)=O)C(=O)N[C@@H](CCCNC(=N)N)C(=O)N[C@@H](Cc1ccc(O)cc1)C(N)=O)[C@@H](C)O` [Compound 136, Y-Aib-E-G-T-F-T-S-D-Y-S-I-Aib-L-E-K-Q-A-Q-Aib-A-F-V-R-H-L-I-N-K(1,3)-Aib-T-R-Q-R-Y-NH2.C20DA-gGlu-gGlu-gGlu-gGlu-OEG-gGlu-gGlu(1,2)], the EC50 at hGIPR (setting [2]) was 0.5 nM. For the same molecule, the solubility at 2 h in data set [1] turned out to be 9600 µg/mL.
For `CC[C@H](C)[C@H](NC(=O)[C@H](CC(C)C)NC(=O)[C@H](Cc1c[nH]cn1)NC(=O)[C@H](CCCNC(=N)N)NC(=O)[C@@H](NC(=O)[C@H](Cc1ccccc1)NC(=O)[C@H](C)NC(=O)C(C)(C)NC(=O)[C@H](CCC(N)=O)NC(=O)[C@H](C)NC(=O)[C@H](CCC(N)=O)NC(=O)[C@H](CCCCN)NC(=O)[C@H](CCC(=O)O)NC(=O)[C@H](CC(C)C)NC(=O)C(C)(C)NC(=O)[C@@H](NC(=O)[C@H](CO)NC(=O)[C@H](Cc1ccc(O)cc1)NC(=O)[C@H](CC(=O)O)NC(=O)[C@H](CO)NC(=O)[C@@H](NC(=O)[C@H](Cc1ccccc1)NC(=O)[C@@H](NC(=O)CNC(=O)[C@H](CCC(=O)O)NC(=O)C(C)(C)NC(=O)[C@@H](N)Cc1ccc(O)cc1)[C@@H](C)O)[C@@H](C)O)[C@@H](C)CC)C(C)C)C(=O)N[C@@H](CC(N)=O)C(=O)N[C@@H](CCCCNC(=O)[C@@H](N)CCCCNC(=O)CC[C@H](NC(=O)CC[C@H](NC(=O)CC[C@H](NC(=O)CC[C@H](NC(=O)CC[C@H](NC(=O)CC[C@H](NC(=O)[C@H]1CC[C@H](CNC(=O)CCCCCCCCCCCCCCCCC(=O)O)CC1)C(=O)O)C(=O)O)C(=O)O)C(=O)O)C(=O)O)C(=O)O)C(=O)NC(C)(C)C(=O)N[C@H](C(=O)N[C@@H](CCCNC(=N)N)C(=O)N[C@@H](CCC(N)=O)C(=O)N[C@@H](CCCNC(=N)N)C(=O)N[C@@H](Cc1ccc(O)cc1)C(N)=O)[C@@H](C)O` [Compound 137, Y-Aib-E-G-T-F-T-S-D-Y-S-I-Aib-L-E-K-Q-A-Q-Aib-A-F-V-R-H-L-I-N-K(1,3)-Aib-T-R-Q-R-Y-NH2.C18DA-TRX-gGlu-gGlu-gGlu-gGlu-gGlu-gGlu-eLys(1,2)], the EC50 came to 0.5 nM on hGIPR (setting [2]) and 11.5 nM at hGIPR (setting [3]). In addition, in data set [1], the solubility at 2 h stood at 4300 µg/mL.
For `CC[C@H](C)[C@H](NC(=O)[C@H](CC(C)C)NC(=O)[C@H](Cc1c[nH]cn1)NC(=O)[C@H](CCCNC(=N)N)NC(=O)[C@@H](NC(=O)[C@H](Cc1ccccc1)NC(=O)[C@H](C)NC(=O)C(C)(C)NC(=O)[C@H](CCC(N)=O)NC(=O)[C@H](C)NC(=O)[C@H](CCC(N)=O)NC(=O)[C@H](CCC(=O)O)NC(=O)[C@H](CC(=O)O)NC(=O)[C@H](CC(C)C)NC(=O)C(C)(C)NC(=O)[C@@H](NC(=O)[C@H](CO)NC(=O)[C@H](Cc1ccc(O)cc1)NC(=O)[C@H](CC(=O)O)NC(=O)[C@H](CO)NC(=O)[C@@H](NC(=O)[C@H](Cc1ccccc1)NC(=O)[C@@H](NC(=O)CNC(=O)[C@H](CCC(=O)O)NC(=O)C(C)(C)NC(=O)[C@@H](N)Cc1ccc(O)cc1)[C@@H](C)O)[C@@H](C)O)[C@@H](C)CC)C(C)C)C(=O)N[C@@H](CC(N)=O)C(=O)N[C@@H](CCCCNC(=O)[C@@H](N)CCCCNC(=O)CC[C@H](NC(=O)CC[C@H](NC(=O)CC[C@H](NC(=O)CC[C@H](NC(=O)CC[C@H](NC(=O)CCCCCCCCCCCCCCCCCCC(=O)O)C(=O)O)C(=O)O)C(=O)O)C(=O)O)C(=O)O)C(=O)NC(C)(C)C(=O)N[C@H](C(=O)N[C@@H](CCCNC(=N)N)C(=O)N[C@@H](CCC(N)=O)C(=O)N[C@@H](CCCNC(=N)N)C(=O)N[C@@H](Cc1ccc(O)cc1)C(N)=O)[C@@H](C)O` [Compound 138, Y-Aib-E-G-T-F-T-S-D-Y-S-I-Aib-L-D-E-Q-A-Q-Aib-A-F-V-R-H-L-I-N-K(1,3)-Aib-T-R-Q-R-Y-NH2.C20DA-gGlu-gGlu-gGlu-gGlu-gGlu-eLys(1,2)], the EC50 on hGIPR (setting [2]) worked out at 0.5 nM; at hGIPR (setting [3]) it was 11.5 nM. For the same molecule, in data set [1], the solubility at 2 h is 9300 µg/mL.
Regarding `CC[C@H](C)[C@H](NC(=O)[C@H](CC(C)C)NC(=O)[C@H](Cc1c[nH]cn1)NC(=O)[C@H](CCCNC(=N)N)NC(=O)[C@@H](NC(=O)[C@H](Cc1ccccc1)NC(=O)[C@H](CO)NC(=O)C(C)(C)NC(=O)[C@H](CCC(N)=O)NC(=O)[C@H](C)NC(=O)[C@H](CCC(N)=O)NC(=O)[C@H](CCCCN)NC(=O)[C@H](CCC(=O)O)NC(=O)[C@H](CC(C)C)NC(=O)C(C)(C)NC(=O)[C@@H](NC(=O)[C@H](CO)NC(=O)[C@H](Cc1ccc(O)cc1)NC(=O)[C@H](CC(=O)O)NC(=O)[C@H](CO)NC(=O)[C@@H](NC(=O)[C@H](Cc1ccccc1)NC(=O)[C@@H](NC(=O)CNC(=O)[C@H](CCC(=O)O)NC(=O)C(C)(C)NC(=O)[C@@H](N)Cc1ccc(O)cc1)[C@@H](C)O)[C@@H](C)O)[C@@H](C)CC)C(C)C)C(=O)N[C@@H](CC(N)=O)C(=O)N[C@@H](CCCCNC(=O)[C@@H](N)CCCCNC(=O)CC[C@H](NC(=O)CC[C@H](NC(=O)CC[C@H](NC(=O)CC[C@H](NC(=O)CC[C@H](NC(=O)CC[C@H](NC(=O)CCCCCCCCCCCCCCCCC(=O)O)C(=O)O)C(=O)O)C(=O)O)C(=O)O)C(=O)O)C(=O)O)C(=O)NC(C)(C)C(=O)N[C@H](C(=O)N[C@@H](CCCNC(=N)N)C(=O)N[C@@H](CCC(N)=O)C(=O)N[C@@H](CCCNC(=N)N)C(=O)N[C@@H](Cc1ccc(O)cc1)C(N)=O)[C@@H](C)O` [Compound 144, Y-Aib-E-G-T-F-T-S-D-Y-S-I-Aib-L-E-K-Q-A-Q-Aib-S-F-V-R-H-L-I-N-K(1,3)-Aib-T-R-Q-R-Y-NH2.C18DA-gGlu-gGlu-gGlu-gGlu-gGlu-gGlu-eLys(1,2)], the EC50 on hGIPR (setting [2]) was determined as 0.4 nM. For the same molecule, in data set [1], the solubility at 2 h amounted to 4300 µg/mL.
`CC[C@H](C)[C@H](NC(=O)[C@H](CC(C)C)NC(=O)[C@H](Cc1c[nH]cn1)NC(=O)[C@H](CCCNC(=N)N)NC(=O)[C@@H](NC(=O)[C@H](Cc1ccccc1)NC(=O)[C@H](CCC(=O)O)NC(=O)C(C)(C)NC(=O)[C@H](CCC(N)=O)NC(=O)[C@H](C)NC(=O)[C@H](CCC(N)=O)NC(=O)[C@H](CCCCN)NC(=O)[C@H](CCC(=O)O)NC(=O)[C@H](CC(C)C)NC(=O)C(C)(C)NC(=O)[C@@H](NC(=O)[C@H](CO)NC(=O)[C@H](Cc1ccc(O)cc1)NC(=O)[C@H](CC(=O)O)NC(=O)[C@H](CO)NC(=O)[C@@H](NC(=O)[C@H](Cc1ccccc1)NC(=O)[C@@H](NC(=O)CNC(=O)[C@H](CCC(=O)O)NC(=O)C(C)(C)NC(=O)[C@@H](N)Cc1ccc(O)cc1)[C@@H](C)O)[C@@H](C)O)[C@@H](C)CC)C(C)C)C(=O)N[C@@H](CC(N)=O)C(=O)N[C@@H](CCCCNC(=O)[C@@H](N)CCCCNC(=O)CC[C@H](NC(=O)CC[C@H](NC(=O)CC[C@H](NC(=O)CC[C@H](NC(=O)CC[C@H](NC(=O)CC[C@H](NC(=O)CCCCCCCCCCCCCCCCCCC(=O)O)C(=O)O)C(=O)O)C(=O)O)C(=O)O)C(=O)O)C(=O)O)C(=O)NC(C)(C)C(=O)N[C@H](C(=O)N[C@@H](CCCNC(=N)N)C(=O)N[C@@H](CCC(N)=O)C(=O)N[C@@H](CCCNC(=N)N)C(=O)N[C@@H](Cc1ccc(O)cc1)C(N)=O)[C@@H](C)O` [Compound 149, Y-Aib-E-G-T-F-T-S-D-Y-S-I-Aib-L-E-K-Q-A-Q-Aib-E-F-V-R-H-L-I-N-K(1,3)-Aib-T-R-Q-R-Y-NH2.C20DA-gGlu-gGlu-gGlu-gGlu-gGlu-gGlu-eLys(1,2)]: on hGIPR (setting [2]), the EC50 turned out to be 0.6 nM. For the same molecule, in data set [1] (read-out: Solubility), the solubility turned out to be 4900 µg/mL.
